pIC50: −log10 of the molar value. Read-outs that look alike come from different tables or passages of the source.
Tests used:
[1] = target: T1, phosphodiesterase 4 (PDE4), PDE4A1A (Homo sapiens, UniProt P27815); test: PDE4A1A Assay Kit, fluorescence polarization; format: biochemical
T1 construct: purchased BSP Bioscience 60340
Protocol: Inhibition of PDE4 blocks hydrolysis of cAMP, thereby increasing levels of cAMP. The PDE4A1A Assay Kit is designed for identification of PDE4A1A inhibitors using fluorescence polarization. The assay is based on the binding of fluorescent AMP generated by PDE4A1A to the binding agent.
The assay was performed according to the protocol of the PDE4A1A assay provided by BSP Bioscience [BSP Bioscience, Data sheet PDE4A1A Assay Kit, Catalog #60340].
(§1) A fluorescence plate reader (Appliskan, Thermo Scientific) was used to detect fluorescence emission signals according to the following parameters:
(§2) Selected alkaloids of the invention prepared in example 1 were tested in 5 times dilutions to establish the 50% inhibitory concentration (IC-50).

IkappaB kinase β (IKK-β) = target: T2, IkappaB kinase β (IKK-β) (Homo sapiens, UniProt O14920); test: IKK-β inhibition, Z'-LYTE Kinase Assay Kit Ser/Thr 5 Peptide (FRET); format: biochemical
T2 construct: purchased Invitrogen
T2 sequence (O14920 1-756): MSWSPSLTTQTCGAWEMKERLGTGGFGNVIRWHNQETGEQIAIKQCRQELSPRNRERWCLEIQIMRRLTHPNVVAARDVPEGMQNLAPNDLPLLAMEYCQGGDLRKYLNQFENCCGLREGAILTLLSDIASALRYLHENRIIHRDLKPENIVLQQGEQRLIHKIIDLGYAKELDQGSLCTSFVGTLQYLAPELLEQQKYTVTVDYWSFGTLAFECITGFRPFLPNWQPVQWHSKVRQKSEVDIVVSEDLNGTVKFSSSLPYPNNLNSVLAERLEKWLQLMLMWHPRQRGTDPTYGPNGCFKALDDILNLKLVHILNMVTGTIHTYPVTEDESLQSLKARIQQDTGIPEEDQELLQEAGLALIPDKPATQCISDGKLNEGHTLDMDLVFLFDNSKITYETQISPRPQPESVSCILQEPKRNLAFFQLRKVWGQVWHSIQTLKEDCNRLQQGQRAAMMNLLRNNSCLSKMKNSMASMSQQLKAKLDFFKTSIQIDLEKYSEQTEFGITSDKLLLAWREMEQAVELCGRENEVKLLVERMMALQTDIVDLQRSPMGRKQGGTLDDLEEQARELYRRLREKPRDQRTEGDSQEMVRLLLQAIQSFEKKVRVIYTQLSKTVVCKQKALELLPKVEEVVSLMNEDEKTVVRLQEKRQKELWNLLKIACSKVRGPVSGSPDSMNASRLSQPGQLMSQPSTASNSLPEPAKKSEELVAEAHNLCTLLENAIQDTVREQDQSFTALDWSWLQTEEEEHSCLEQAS
Protocol: IKK-β phosphorylates the inhibitory IκB protein associated with NF-κB. Phosphorylation results in the dissociation of IκB from NF-κB, allowing NF-κB to migrate into the cell nucleus where it can activate the transcription of at least 150 genes. The Z9-LYTE™ Kinase Assay Kit—Ser/Thr 5 Peptide is designed to screen for potential IKK-β inhibitory effect using fluorescence resonance energy transfer (FRET) between coumarin and fluorescein for detection by a fluorometer.
The assay was performed according to Z9-LYTE™ KINASE ASSAY KIT—SER/THR 5 PEPTIDE protocol provided by Invitrogen [Invitrogen, Z′-LYTE™ Kinase Assay Kit—Ser/Thr 5 Peptide Protocol, O-062187-r1 US 0405]. Based on the IKK-β certificate of the kit, a kinase concentration of 500 ng/ml was chosen. Km for ATP 9.4 μM was chosen according to an optimization for the LanthaScreen™ kinase assay [http://tools.invitrogen.com/content/sfs/manuals/IKBKB_%28IKK_beta %29_LanthaScreen_Activity.pdf].
as §1, §2

[2] = target: T3, phosphodiesterase 5A (PDE5) (Homo sapiens, UniProt O76074); test: PDE5A Assay Kit, fluorescence polarization; format: biochemical
T3 construct: purchased BSP Bioscience 60350
Protocol: Inhibition of PDE5 blocks hydrolysis of cGMP, thereby increasing levels of cGMP. The PDE5A Assay Kit is designed for identification of PDE5A inhibitors using fluorescence polarization. The assay is based on the binding of a fluorescent nucleotide monophosphate generated by PDE5A to the binding agent.
The assay was performed according to the protocol of the PDE5A assay provided by BSP Bioscience [BSP Bioscience, Data sheet PDE5A Assay Kit, Catalog #60350].
as §1, §2

[3] = tested on: hyperlipidemic guinea pigs; test: Hypocholesterolemic effect in hyperlipidemic guinea pigs induced by high fat diet; format: in vivo, guinea pig; details: 10 mg/kg oral once daily, 28 days
Protocol: Male Dunkin-Hartley guinea pigs weighing 300+/−30 g were acclimated one week before the in-life phase of the experiment. The study diet (Research Diets Inc, New Brunswick, N.J., USA) contained 15% corn oil and 0.25% cholesterol. A daily oral dose of 2000 mg/kg of RAP2 corresponding 9 μg/kg of Ribetril A and 82 μg/kg total Ribetrils as well as 632 μg/kg total Glucoindols was administered orally at a dosing volume of 10 mL/kg. A daily oral dose of 2000 mg/kg of RAP4 corresponding to 112 μg/kg of Ribetril A and 492 μg/kg total Ribetrils as well as 240 μg/kg total Glucoindols was administered orally at a dosing volume of 10 mL/kg. The positive control atorvastatin (10 mg/kg) and vehicle (0.5% methylcellulose) were each administered orally at a dosing volume of 10 mL/kg. […]
After fasting overnight, blood samples were obtained from the retro-orbital sinus of each animal 5 min before initial test substance and/or vehicle administration (pre-treatment) and 24 hours after dosing on days 14 and 28 (post-treatment). The serum total cholesterol (TC), low density lipoprotein cholesterol (LDL-C), high density lipoprotein cholesterol (HDL-C) and triglycerides (TG) were determined by an enzymatic method (Wako total cholesterol, LDL-C, HDL-C & TG diagnostic kit and Toshiba Automatic Analyzer Model TAB-120FR).

[4] = tested on: BKS Cg-Lepr db/Lepr db mice; test: Hypoglycemic effect in BKS Cg-Lepr db/Lepr db mice (NIDDM model); format: in vivo, mouse; details: 300 mg/kg oral daily, day 14 post dosing
Protocol: Male non-insulin dependent diabetic mellitus (NIDDM) mice (BKS Cg-Lepr db/Lepr db) weighing 50+/−5 g were used at age of 12-13 weeks. A daily oral dose of 2000 mg/kg of RAP4 corresponding to corresponding to 112 μg/kg of Ribetril A and 492 μg/kg total Ribetrils as well as 240 μg/kg total Glucoindols was administered orally at a dosing volume of 10 mL/kg to 12 animals for a total of 14 consecutive days. The positive control of metformin (300 mg/kg) and vehicle (2% Tween 80) were each administered orally at a dosing volume of 10 mL/kg to groups of 6 animals once daily for a total of 14 consecutive days. Serum glucose levels were measured by means of an automated analyzer (TBA-120FR, Toshiba) and serum insulin by ELISA at zero min (pre-treatment) on Day 1, and at 90 min after the daily dosing (post-treatment) on Day 7 and Day 14.

[5] = read-out: Inhibitory effect on PDE4 IC-50
[6] = read-out: Inhibitory effect on IKK-β IC-50
[7] = read-out: Inhibitory effect on PDE5 IC-50

T1 sequence (P27815 1-647 isoform P27815-4): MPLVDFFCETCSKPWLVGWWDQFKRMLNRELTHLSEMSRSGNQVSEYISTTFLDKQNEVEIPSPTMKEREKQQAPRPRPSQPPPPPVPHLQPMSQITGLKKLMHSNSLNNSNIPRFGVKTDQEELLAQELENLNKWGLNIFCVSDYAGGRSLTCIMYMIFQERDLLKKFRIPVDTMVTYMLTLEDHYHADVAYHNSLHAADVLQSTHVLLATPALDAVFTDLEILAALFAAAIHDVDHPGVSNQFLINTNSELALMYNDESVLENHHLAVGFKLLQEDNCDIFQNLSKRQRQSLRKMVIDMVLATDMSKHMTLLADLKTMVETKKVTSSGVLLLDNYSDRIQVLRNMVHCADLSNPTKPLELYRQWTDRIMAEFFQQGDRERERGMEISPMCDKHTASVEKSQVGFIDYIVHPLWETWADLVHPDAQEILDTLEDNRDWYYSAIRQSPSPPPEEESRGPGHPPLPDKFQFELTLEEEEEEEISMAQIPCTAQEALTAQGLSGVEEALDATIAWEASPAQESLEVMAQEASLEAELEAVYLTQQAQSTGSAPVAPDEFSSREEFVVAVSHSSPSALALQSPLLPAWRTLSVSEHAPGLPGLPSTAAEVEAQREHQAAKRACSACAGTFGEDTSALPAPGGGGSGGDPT

SMILES | pIC50 [1, 5] | pIC50 (IkappaB kinase β (IKK-β); [6]) | pIC50 [2, 7] | also measured
O=C(O)Cc1cn([C@@H]2O[C@H](CO)[C@@H](O)[C@H](O)[C@H]2O)c2ccccc12 [Glucoindol A, 2-(1-((2R,3R,4S,5S,6R)-3,4,5-trihydroxy-6-(hydroxymethyl)tetrahydro-2H-pyran-2-yl)-1H-indol-3-yl)acetic acid] | 4.06 | – | – | –
COC(=O)Cc1cn([C@@H]2O[C@H](CO)[C@@H](O)[C@H](O)[C@H]2O)c2ccccc12 [Glucoindol B, methyl 2-(1-((2R,3R,4S,5S,6R)-3,4,5-trihydroxy-6-(hydroxymethyl)tetrahydro-2H-pyran-2-yl)-1H-indol-3-yl)acetate] | 4.34 | – | – | –
N#C/C(=C\CO[C@@H]1O[C@H](CO)[C@@H](O)[C@H](O)[C@H]1O)COC(=O)/C=C/c1ccc(O)c(O)c1 [Ribetril A, (E)-(E)-2-cyano-4-(((2R,3R,4S,5S,6R)-3,4,5-trihydroxy-6-(hydroxymethyl)tetrahydro-2H-pyran-2-yl)oxy)but-2-en-1-yl 3-(3,4-dihydroxyphenyl)acrylate] | 5.53 | 6.89 | 5.68 | times lower IC-50 as compared to Ribetril B (IKK-β) (IkappaB kinase β (IKK-β); vs Ribetril B): 48 times; times lower IC-50 as compared to Ribetril C (IKK-β) (IkappaB kinase β (IKK-β); vs Ribetril C): 118 times; times lower IC-50 as compared to Ribetril B (PDE4) ([1]; vs Ribetril B): 5 times; times lower IC-50 as compared to Ribetril C (PDE4) ([1]; vs Ribetril C): 20 times; times lower IC-50 as compared to Ribetril B (PDE5) ([2]; vs Ribetril B): 3 times; times lower IC-50 as compared to Ribetril C (PDE5) ([2]; vs Ribetril C): 8 times
COc1cc(/C=C/C(=O)OC/C(C#N)=C/CO[C@@H]2O[C@H](CO)[C@@H](O)[C@H](O)[C@H]2O)ccc1O [Ribetril B, (E)-(E)-2-cyano-4-(beta-D-glucopyranosyloxy)but-2-en-1-yl 3-(4-hydroxy-3-methoxyphenyl)acrylate] | 4.85 | 5.20 | 5.27 | –
N#C/C(=C\CO[C@@H]1O[C@H](CO)[C@@H](O)[C@H](O)[C@H]1O)COC(=O)/C=C/c1ccc(O)cc1 [Ribetril C, (E)-(E)-2-cyano-4-(beta-D-glucopyranosyloxy)but-2-en-1-yl 3-(4-hydroxyphenyl)acrylate] | 4.22 | 4.82 | 4.76 | –
COc1cc(C(=O)OC/C(C#N)=C/CO[C@@H]2O[C@H](CO)[C@@H](O)[C@H](O)[C@H]2O)ccc1O [Ribetril D, (E)-2-cyano-4-(beta-D-glucopyranosyloxy)but-2-en-1-yl 4-hydroxy-3-methoxybenzoate] | – | – | – | pIC50 (IkappaB kinase β (IKK-β)): 7.43; pIC50 [1]: 6.64; pIC50 [2]: > 7.40
N#C/C(=C\CO[C@@H]1O[C@H](CO)[C@@H](O)[C@H](O)[C@H]1O)COC(=O)c1ccc(O)cc1 [Ribetril E, (E)-2-cyano-4-(beta-D-glucopyranosyloxy)but-2-en-1-yl 4-hydroxybenzoate] | 5.46 | 5.72 | 5.47 | –
CC(C)c1c(C(=O)Nc2ccccc2)c(-c2ccccc2)c(-c2ccc(F)cc2)n1CC[C@@H](O)C[C@@H](O)CC(=O)O [atorvastatin] | – | – | – | triglyceride reduction [3]: did not significantly reduce triglycerides
CN(C)C(=N)N=C(N)N [metformin] | – | – | – | serum glucose levels relative to vehicle control [4]: significant decrease

Source: US9023816B2, “Bioactive alkaloid compositions and their medical uses” (Asiros A/S, priority 2013, dated 2015)
